# Results as given in patent US20250120967A1, “TYROSINE KINASES INHIBITORS AND USES THEREOF” (GREAT NOVEL THERAPEUTICS BIOTECH & MEDICALS CORPORATION, priority 2023, published 2025).
# Assays:
# Experiment in all cases: Tyrosine kinase inhibition assay
# Format in all cases: biochemical
# Conditions in all cases: single concentration 1.0 μM, read-out: percent inhibition
# [1] = target: T1, EPHA8 (Homo sapiens, UniProt P29322)
# T1 sequence (P29322 28-1005): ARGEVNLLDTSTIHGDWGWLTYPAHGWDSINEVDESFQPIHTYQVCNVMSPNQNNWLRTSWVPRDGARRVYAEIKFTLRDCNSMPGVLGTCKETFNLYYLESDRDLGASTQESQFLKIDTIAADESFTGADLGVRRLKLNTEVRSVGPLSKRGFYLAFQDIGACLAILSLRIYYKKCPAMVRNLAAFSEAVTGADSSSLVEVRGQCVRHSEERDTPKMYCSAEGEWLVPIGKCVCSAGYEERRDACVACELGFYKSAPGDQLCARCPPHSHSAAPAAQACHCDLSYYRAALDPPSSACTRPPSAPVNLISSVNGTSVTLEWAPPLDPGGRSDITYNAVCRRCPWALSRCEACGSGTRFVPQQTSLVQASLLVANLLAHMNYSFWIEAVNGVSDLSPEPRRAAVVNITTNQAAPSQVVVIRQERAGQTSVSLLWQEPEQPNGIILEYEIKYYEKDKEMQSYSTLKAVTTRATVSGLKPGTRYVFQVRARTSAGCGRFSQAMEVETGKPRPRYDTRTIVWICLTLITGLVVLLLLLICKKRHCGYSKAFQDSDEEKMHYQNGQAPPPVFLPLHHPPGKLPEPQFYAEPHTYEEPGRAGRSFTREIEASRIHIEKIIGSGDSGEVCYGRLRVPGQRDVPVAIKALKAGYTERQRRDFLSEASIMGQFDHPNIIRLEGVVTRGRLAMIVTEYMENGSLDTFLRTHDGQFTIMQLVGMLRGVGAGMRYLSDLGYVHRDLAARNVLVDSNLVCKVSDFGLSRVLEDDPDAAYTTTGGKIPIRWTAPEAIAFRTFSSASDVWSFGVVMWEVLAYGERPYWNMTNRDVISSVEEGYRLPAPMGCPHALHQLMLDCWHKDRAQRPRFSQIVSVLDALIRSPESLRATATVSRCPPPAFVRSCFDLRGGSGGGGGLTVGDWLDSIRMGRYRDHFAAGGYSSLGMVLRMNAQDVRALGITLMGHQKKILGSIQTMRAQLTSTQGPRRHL
# In short: (§1)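 Single-point screen, 1.0 μM compound, 1% DMSO final; ATP at apparent Km. Buffer: 50 mM HEPES pH 7.5, 0.01% BRIJ-35, 10 mM MgCl2, 1 mM EGTA. Z′-LYTE readout, % inhibition; hit = >80%.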
# [2] = target: T2, AURKC (Aurora C) (Homo sapiens, UniProt Q9UQB9)
# T2 sequence (Q9UQB9 1-309): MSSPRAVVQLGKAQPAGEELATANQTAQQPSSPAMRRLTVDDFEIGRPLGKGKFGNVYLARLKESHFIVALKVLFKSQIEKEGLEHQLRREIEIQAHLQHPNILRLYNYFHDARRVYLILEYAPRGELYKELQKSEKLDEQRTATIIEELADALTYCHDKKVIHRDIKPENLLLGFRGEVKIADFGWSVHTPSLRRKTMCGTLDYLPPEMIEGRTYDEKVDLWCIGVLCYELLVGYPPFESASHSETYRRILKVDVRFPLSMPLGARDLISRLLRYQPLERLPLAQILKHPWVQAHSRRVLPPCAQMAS
# In short: as §1
# [3] = target: T3, TEC (Homo sapiens, UniProt P42680)
# T3 sequence (P42680 1-631): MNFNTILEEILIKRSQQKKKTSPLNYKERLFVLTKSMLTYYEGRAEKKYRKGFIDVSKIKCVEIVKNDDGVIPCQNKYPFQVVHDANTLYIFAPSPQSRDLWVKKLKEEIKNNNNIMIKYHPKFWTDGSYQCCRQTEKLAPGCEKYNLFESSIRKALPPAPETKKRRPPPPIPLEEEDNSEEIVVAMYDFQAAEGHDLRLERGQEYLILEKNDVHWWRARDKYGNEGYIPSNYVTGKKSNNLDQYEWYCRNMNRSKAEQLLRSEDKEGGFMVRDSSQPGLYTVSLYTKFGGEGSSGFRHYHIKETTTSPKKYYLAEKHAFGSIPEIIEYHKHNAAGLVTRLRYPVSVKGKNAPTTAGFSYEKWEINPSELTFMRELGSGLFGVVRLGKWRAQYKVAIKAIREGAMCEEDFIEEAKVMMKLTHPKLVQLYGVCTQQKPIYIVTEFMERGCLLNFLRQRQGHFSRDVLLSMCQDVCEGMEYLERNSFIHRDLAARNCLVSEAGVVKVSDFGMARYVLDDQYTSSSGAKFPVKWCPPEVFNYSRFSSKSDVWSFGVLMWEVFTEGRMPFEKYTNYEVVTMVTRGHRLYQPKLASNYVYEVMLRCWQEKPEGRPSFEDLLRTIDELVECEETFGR
# In short: as §1
Compound,inhibition at 1 µM [1],inhibition at 1 µM [2],inhibition at 1 µM [3]
"COc1cc2nccc(Oc3ccc(NC(=O)C4(C(=O)Nc5ccc(F)cc5)CC4)cc3)c2cc1OC [Cabozantinib, reference compound]",104%,59%,5%
"COc1cc2nccc(Oc3ccc(NC(=O)C4(NC(=O)c5ccc(F)cc5)CC4)cc3F)c2cc1OC [Cbo-02, N-(1-((4-((6,7-diMethoxyquinolin-4-yl)oxy)-3-fluorophenyl)carbamoyl)cyclopropyl)-4-fluorobenzamide]",42%,74%,29%
COc1cc2nccc(Oc3ccc(NC(=O)C4(NC(=O)c5ccc(F)cc5)CC4)cc3F)c2cc1Oc1ccc(N)cc1F [Cbo-10],76%,63%,80%
COc1cc2nccc(Oc3ccc(NC(=O)C4(NC(=O)c5ccc(F)cc5)CC4)cc3F)c2cc1Oc1c(F)cc(N)cc1F [Cbo-14],82%,59%,77%
COc1cc2nccc(Oc3ccc(NC(=O)C4(C(=O)Nc5ccc(F)cc5)CC4)cc3F)c2cc1Oc1ccc(N)cc1F [Cbo-23],100%,41%,37%
